Where “and” joins values, the source holds several entries; their conditions need not be identical. Equal values may be shown once.
Columns and labels:
ERα = molecular target: T1, ERα (Homo sapiens, UniProt P03372); test: ER reporter gene assay in HEK 293 T cells (ER-luciferase reporter); type: cell-based; settings: for Reporter gene assay raw data, ERa: 4 replicate columns
T1 construct: expressed in transfected cells; host or cells: HEK 293 T cells
T1 sequence (P03372 1-595): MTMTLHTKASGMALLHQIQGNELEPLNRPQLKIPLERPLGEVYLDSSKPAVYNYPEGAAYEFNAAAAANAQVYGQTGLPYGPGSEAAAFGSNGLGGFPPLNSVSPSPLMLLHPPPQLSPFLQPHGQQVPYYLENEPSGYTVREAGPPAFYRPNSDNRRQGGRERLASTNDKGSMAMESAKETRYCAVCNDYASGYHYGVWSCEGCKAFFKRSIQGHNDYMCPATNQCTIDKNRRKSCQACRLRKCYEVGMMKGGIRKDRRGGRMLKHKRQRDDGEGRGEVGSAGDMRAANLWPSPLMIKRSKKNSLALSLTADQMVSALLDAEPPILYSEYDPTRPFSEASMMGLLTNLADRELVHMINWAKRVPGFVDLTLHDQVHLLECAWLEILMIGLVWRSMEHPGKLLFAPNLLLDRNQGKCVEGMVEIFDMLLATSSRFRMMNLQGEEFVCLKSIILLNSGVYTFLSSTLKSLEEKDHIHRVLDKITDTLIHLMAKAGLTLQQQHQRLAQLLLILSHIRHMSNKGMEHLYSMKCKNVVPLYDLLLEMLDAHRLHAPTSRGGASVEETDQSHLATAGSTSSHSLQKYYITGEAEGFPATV

ERβ = molecular target: T2, ERβ (Homo sapiens, UniProt Q92731); test: as above; type: cell-based; settings: for Reporter gene assay raw data, ERb: ERb data block (head r19), 4 replicate columns; for ERb reporter gene assay raw data (response): four replicate columns per compound
T2 construct: expressed in transfected cells; host or cells: HEK 293 T cells
T2 sequence (Q92731 whole entry, species assumed): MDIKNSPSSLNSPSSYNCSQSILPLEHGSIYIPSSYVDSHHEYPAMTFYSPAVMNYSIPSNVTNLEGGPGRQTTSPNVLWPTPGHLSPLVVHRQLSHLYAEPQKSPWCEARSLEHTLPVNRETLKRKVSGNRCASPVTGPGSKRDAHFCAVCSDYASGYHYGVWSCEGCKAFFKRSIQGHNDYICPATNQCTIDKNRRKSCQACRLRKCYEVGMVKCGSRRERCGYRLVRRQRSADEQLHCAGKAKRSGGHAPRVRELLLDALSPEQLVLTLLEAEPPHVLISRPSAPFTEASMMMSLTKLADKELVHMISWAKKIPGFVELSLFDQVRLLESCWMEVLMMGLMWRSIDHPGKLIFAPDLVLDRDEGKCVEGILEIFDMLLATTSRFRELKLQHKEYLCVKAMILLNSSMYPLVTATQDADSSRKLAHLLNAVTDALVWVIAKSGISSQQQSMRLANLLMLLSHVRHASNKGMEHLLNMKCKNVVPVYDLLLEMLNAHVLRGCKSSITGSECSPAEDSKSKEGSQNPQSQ

SMILES: CCCc1c(-c2ccc(O)cc2)nn(-c2ccc(O)cc2)c1-c1ccc(O)cc1 [PPT, propylpyrazoletriol]
- Reporter gene assay raw data, ERa (ERα; Log M -6, first ERa data block (head r2)): 86.0824 and 79.2296 and 78.3082 and 79.1573
- Reporter gene assay raw data, ERa (ERα; Log M -6, second ERa data block (head r34)): 87.9608 and 88.617 and 93.8527 and 87.2476
- Reporter gene assay raw data, ERa (ERα; Log M -6.47756, first ERa data block (head r2)): 90.8624 and 88.5783 and 89.3316 and 78.0129
- Reporter gene assay raw data, ERa (ERα; Log M -6.47756, second ERa data block (head r34)): 88.252 and 85.7322 and 87.7049 and 87.7177
- Reporter gene assay raw data, ERa (ERα; Log M -6.95468, first ERa data block (head r2)): 87.1769 and 84.3715 and 90.3303 and 89.4496
- Reporter gene assay raw data, ERa (ERα; Log M -6.95468, second ERa data block (head r34)): 95.811 and 91.5253 and 94.4371 and 90.1172
- Reporter gene assay raw data, ERa (ERα; Log M -7.4318, first ERa data block (head r2)): 90.4114 and 87.987 and 94.8392 and 90.7082
- Reporter gene assay raw data, ERa (ERα; Log M -7.4318, second ERa data block (head r34)): 106.107 and 97.2934 and 83.08 and 92.8748
- Reporter gene assay raw data, ERa (ERα; Log M -7.91009, first ERa data block (head r2)): 85.6554 and 95.12 and 98.5558 and 94.3071
- Reporter gene assay raw data, ERa (ERα; Log M -7.91009, second ERa data block (head r34)): 95.0594 and 87.5842 and 88.9618 and 84.8971
- Reporter gene assay raw data, ERa (ERα; Log M -8.3851, first ERa data block (head r2)): 92.5458 and 88.4315 and 85.0988 and 85.7612
- Reporter gene assay raw data, ERa (ERα; Log M -8.3851, second ERa data block (head r34)): 94.3547 and 89.3596 and 80.8197 and 80.3933
- Reporter gene assay raw data, ERa (ERα; Log M -8.86328, first ERa data block (head r2)): 84.8361 and 86.8057 and 82.3746 and 77.2465
- Reporter gene assay raw data, ERa (ERα; Log M -8.86328, second ERa data block (head r34)): 85.9296 and 87.1693 and 76.3853 and 76.3319
- Reporter gene assay raw data, ERa (ERα; Log M -9.34008, first ERa data block (head r2)): 74.7989 and 75.6545 and 77.292 and 82.2909
- Reporter gene assay raw data, ERa (ERα; Log M -9.34008, second ERa data block (head r34)): 84.5588 and 86.4988 and 76.9768 and 80.3165
- Reporter gene assay raw data, ERa (ERα; Log M -9.81816, first ERa data block (head r2)): 61.8395 and 65.1501 and 66.4827 and 65.905
- Reporter gene assay raw data, ERa (ERα; Log M -9.81816, second ERa data block (head r34)): 75.5533 and 73.0444 and 68.3421 and 69.495
- Reporter gene assay raw data, ERa (ERα; Log M -10.2941, first ERa data block (head r2)): 40.0072 and 40.9439 and 38.9576 and 38.1761
- Reporter gene assay raw data, ERa (ERα; Log M -10.2941, second ERa data block (head r34)): 46.869 and 47.8915 and 37.7547 and 39.1778
- Reporter gene assay raw data, ERa (ERα; Log M -10.7721, first ERa data block (head r2)): 19.4359 and 14.8698 and 17.3697 and 15.2983
- Reporter gene assay raw data, ERa (ERα; Log M -10.7721, second ERa data block (head r34)): 13.881 and 18.514 and 18.2618 and 16.0774
- Reporter gene assay raw data, ERa (ERα; Log M -11.248, first ERa data block (head r2)): 4.705 and 3.999 and 3.885 and 4.444
- Reporter gene assay raw data, ERa (ERα; Log M -11.248, second ERa data block (head r34)): 6.356 and 4.574 and 4.487 and 4.951
- ERa reporter gene assay raw data (response) (ERα; Log M -13, four replicate columns per compound): 0.8253 and -0.8253 and 1.478 and -1.478
- Reporter gene assay raw data, ERb (ERβ; Log M -6): 19.5014 and 20.0849 and 23.8882 and 22.6897
- ERb reporter gene assay raw data (response) (ERβ; Log M -6): 21.485 and 20.205 and 17.3019 and 20.855
- Reporter gene assay raw data, ERb (ERβ; Log M -6.47756): 16.4485 and 15.2513 and 19.8755 and 17.389
- ERb reporter gene assay raw data (response) (ERβ; Log M -6.47756): 18.9594 and 20.0074 and 15.2776 and 15.7954
- Reporter gene assay raw data, ERb (ERβ; Log M -6.95468): 10.4714 and 10.5487 and 14.4972 and 14.256
- ERb reporter gene assay raw data (response) (ERβ; Log M -6.95468): 18.4622 and 14.9797 and 13.6041 and 14.8139
- Reporter gene assay raw data, ERb (ERβ; Log M -7.4318): 5.476 and 4.22 and 5.578 and 6.583
- ERb reporter gene assay raw data (response) (ERβ; Log M -7.4318): 10.9473 and 9.898 and 9.008 and 8.195
- Reporter gene assay raw data, ERb (ERβ; Log M -7.91009): 1.07 and -0.6207 and 3.16 and 0.9592
- ERb reporter gene assay raw data (response) (ERβ; Log M -7.91009): 6.169 and 4.563 and 6.678 and 4.2739
- Reporter gene assay raw data, ERb (ERβ; Log M -8.3851): 0.7593 and -1.643 and 0.4997 and -2.03
- ERb reporter gene assay raw data (response) (ERβ; Log M -8.3851): 3.945 and 3.96 and 6.88 and 1.445
- Reporter gene assay raw data, ERb (ERβ; Log M -8.86328): -0.4322 and -1.466 and 2.716 and -1.501
- ERb reporter gene assay raw data (response) (ERβ; Log M -8.86328): 5.736 and 3.2685 and 3.216 and 2.057
- Reporter gene assay raw data, ERb (ERβ; Log M -9.34008): -0.1098 and -1.507 and 1.45 and -0.6901
- ERb reporter gene assay raw data (response) (ERβ; Log M -9.34008): 3.967 and 2.823 and 2.379 and 1.871
- Reporter gene assay raw data, ERb (ERβ; Log M -9.81816): -0.5451 and -0.7163 and 0.1509 and -1.511
- ERb reporter gene assay raw data (response) (ERβ; Log M -9.81816): 1.577 and 2.9115 and 0.9432 and -0.07211
- Reporter gene assay raw data, ERb (ERβ; Log M -10.2941): -1.084 and -0.1568 and -0.6795 and -0.3425
- ERb reporter gene assay raw data (response) (ERβ; Log M -10.2941): 1.736 and 0.3306 and 0.3765 and -0.321
- Reporter gene assay raw data, ERb (ERβ; Log M -10.7721): -1.226 and -1.1541 and -1.046 and -1.761
- ERb reporter gene assay raw data (response) (ERβ; Log M -10.7721): -0.8597 and 0.03179 and -1.5452 and -1.38
- Reporter gene assay raw data, ERb (ERβ; Log M -11.248): -0.3317 and 0.5222 and -1.104 and -1.502
- ERb reporter gene assay raw data (response) (ERβ; Log M -11.248): -0.3358 and 0.6884 and 0.7035 and 0.7906
- ERb reporter gene assay raw data (response) (ERβ; Log M -13): 0.5566 and -0.5566 and 0.8119 and -0.8119
